From US5498624A, “Selected pyrazolyl derivatives” (Monsanto Company, priority 1995, dated 1996)

Tests used:
Venturia inaequalis [1] = assay: In Vitro Apple Scab Assay (ASC In Vitro); format: cell-based; conditions: germ tube length
Description: A) Pathogen/Inoculum Production--A suspension of Venturia inaequalis conidia, adjusted to 150,000 spores/ml, is prepared using freshly harvested or frozen conidia. Apple seedlings, cv. McIntosh, are sprayed with this suspension and incubated in a high humidity chamber set at 20° C. with a 12 hour photoperiod for approximately four weeks. At maximum disease expression, a fine mist of deionized water is used to wash conidia from sporulating lesions and the resulting liquid/spore suspension is collected into glass vials and frozen at -80° C. for future use.
B) Compound Preparation--Water agar with 1.5% agar m/v is autoclaved to sterilization. Stock solutions of each compound of the present invention are made by solubilizing them in an appropriate solvent at a convenient concentration. Serial dilutions in solvent are made from this stock to execute the various test rates. When the molten agar is cool enough to pour, the compounds in solvent are dispensed into the agar such that the final concentration ratio of agar to solvent is 100:1. The agar is gently agitated and poured into petri plates, one plate per treatment. The standard used is 3-(difluoromethyl)-N-2,3-dihydro-1,1,3-trimethyl-1H-inden-4-yl)-1-Methyl-1H-Pyrazole-4-carboxamide as found in U.S. Pat. No. 5,093,347.
C) Test Execution--Twenty-four hours after pouring, the plates are ready for inoculation. The previously collected frozen spore suspension is thawed at room temperature and diluted to a concentration of 1×10^4 spores/ml with sterile water. Three drops of approximately 0.1 ml each of the suspension are placed into each plate in an equidistant configuration. The plates are then placed in a dark incubator set at 20° C.
D) Test Evaluation--Forty to forty-eight hours later, the lengths of the spore germ tubes are measured using an ocular lens scale on a binocular microscope. Ten germ tubes in a drop are measured and an average determined for that drop. This procedure is repeated for the other two drops. The values for the three drops are then averaged to give the mean for the treatment. Percent inhibition of germination is calculated using the following equation: % Inhibition=(avg. control length--avg. treatment length/avg. control length) X 100.

[2] = tested on: Erysiphe graminis f. sp. tritici; assay: Wheat Powdery Mildew Foliar Curative Treatment (WPM Cur); format: in vivo; conditions: 20 ppm foliar curative, inoculation 48 hours prior to application
Description: A) Pathogen/Inoculum Production follow as per Example 2. (B) Host Propagation, (C) Compound Preparation and (D) Compound Application follow as per Example 1.
E) Inoculation/Incubation--Inoculation is accomplished as per Example 1, 48 hours prior to compound application. The incubation period is temporarily interrupted for chemical treatment, the plants are allowed to dry and then returned to the incubation chamber.
(G) Evaluation and (H) Data follow as per Example 1. The percent protection values for the compounds of the present invention are as set out in the Table below.

Venturia inaequalis [3] = assay: Apple Scab Foliar Assay (ASC Cur); format: in vivo; conditions: 20 ppm, sprayed 72 hours after inoculation, apple seedlings
Description: Apple Scab Foliar Assay Methods (ASC Cur)--This assay is that of Example 1 except for the sequence of the chemical application and pathogen inoculation events. One month old apple seedlings are inoculated as described. 72 hours later, the plants are removed from the mist chamber and sprayed with the test chemicals and then returned to the mist-chamber after 1 to 2 hours. Disease evaluation is made on day 8-12.

Septoria nodorum = assay: Wheat Glume Blotch Foliar Assay, curative (WGB Cur); format: in vivo; conditions: application two days post-inoculation, * = averaged value
Description: A) Host Propagation--Winter wheat plants, cv. Caldwell, are grown in 5.7 cm^2 pots, three per pot, and maintained in a growth chamber set at 20° C., 80% RH with a 12 hour photoperiod.
B) Compound Preparation--A 1.0% stock solution of each of the compounds of the present invention is first prepared utilizing an appropriate solvent such as acetone, water or DMSO. This stock is then used to prepare the final spray solution which contains the compound at the desired dosage, eg 100 ppm and 20 ppm, acetone at 20% v/v, Tween®20 at .05% w/v, and water at about 80%. Commercial standard used is tebuconazole at equivalent rates.
C) Compound Application, Seedlings are sprayed at the two-leaf stage (GS 12) using a DeVilbiss Model 152 hand operated sprayer set at 15-20 psi. Six ml of the test solution per treatment are applied to three pots. In the protectant assay (EXAMPLE 8), the compound application is made two days pre-inoculation. In the curative assay (EXAMPLE 9), the compound is applied during a brief interruption of the disease incubation period two days post-inoculation. […]
E) Test Evaluation--Eight to ten days after removal from the high humidity chamber, or twelve to fourteen days after inoculation, treatments are evaluated by visually estimating the percentage of the leaf area (on the first leaf) covered with lesions. […] Percent disease, as well as percent control values are calculated. […]

Structure (SMILES)	ASC In vitro (A.I.) Activity Index (Venturia inaequalis [1]; 0.1 ppm in water agar)	ASC In vitro (A.I.) Activity Index (Venturia inaequalis [1]; 1.0 ppm in water agar)	WPM Cur percent disease control [2] [%]	ASC Cur percentage control (Venturia inaequalis [3]) [%]	WGB Cur percent control (Septoria nodorum; 20 ppm) [%]	WGB Cur percent control (Septoria nodorum; 100 ppm) [%]
C[C@@H]1CCC[C@H](c2ccccc2NC(=O)c2cn(C)nc2C(F)F)C1 (relative stereo) [Number 2, 1H-pyrazole-4-carboxamide, 3-(difluoromethyl)-1-methyl-N-[2-(-3-methylcyclohexyl)phenyl]-, cis-]	3	3				
C[C@H]1CCC[C@H](c2ccccc2NC(=O)c2cn(C)nc2C(F)F)C1 (relative stereo) [Number 3, 1H-pyrazole-4-carboxamide, 3-(difluoromethyl)-1-methyl-N-[2-(3-methylcyclohexyl)phenyl]-, trans-]	3	3	89	69	62	67
